# Laboratory results from ChEMBL document CHEMBL1201862, “PubChem BioAssay data set” (2004).
#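 Values below derive from 48-hour exposures of cells grown in 96-well plates, with endpoints linearly interpolated between the two concentrations bracketing the appropriate inhibition level. GI50: concentration for 50% inhibition of growth.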 The source made the active and inactive calls. Rule as the data show it: active = GI50 up to about 1.1 µM and inactive = higher.
# How the values were obtained:
# Assay in all cases: NCI anticancer screen, dose series, 48 h
# 786-0 = tested on: 786-0
# A498 = tested on: A498
# A549 = tested on: A549
# ACHN = tested on: ACHN
# BT-549 = tested on: BT-549
# CAKI-1 = tested on: CAKI-1
# CCRF-CEM = tested on: CCRF-CEM
# COLO 205 = tested on: COLO 205
# DU-145 = tested on: DU-145
# EKVX = tested on: EKVX
# HCC 2998 = tested on: HCC 2998
# HCT-116 = tested on: HCT-116
# HCT-15 = tested on: HCT-15
# HL-60 = tested on: HL-60
# HOP-62 = tested on: HOP-62
# HOP-92 = tested on: HOP-92
# HT-29 = tested on: HT-29
# Hs-578T = tested on: Hs-578T
# IGROV-1 = tested on: IGROV-1
# K562 = tested on: K562
# KM12 = tested on: KM12
# LOX IMVI = tested on: LOX IMVI
# M14 = tested on: M14
# MCF7 = tested on: MCF7
# MDA-MB-231 = tested on: MDA-MB-231
# MDA-MB-435 = tested on: MDA-MB-435
# MDA-N = tested on: MDA-N
# MOLT-4 = tested on: MOLT-4
# Malme-3M = tested on: Malme-3M
# NCI-H226 = tested on: NCI-H226
# NCI-H23 = tested on: NCI-H23
# NCI-H460 = tested on: NCI-H460
# NCI-H522 = tested on: NCI-H522
# NCI/ADR-RES = tested on: NCI/ADR-RES
# OVCAR-3 = tested on: OVCAR-3
# OVCAR-4 = tested on: OVCAR-4
# OVCAR-5 = tested on: OVCAR-5
# OVCAR-8 = tested on: OVCAR-8
# PC-3 = tested on: PC-3
# RPMI-8226 = tested on: RPMI-8226
# RXF 393 = tested on: RXF 393
# SF-268 = tested on: SF-268
# SF-295 = tested on: SF-295
# SF-539 = tested on: SF-539
# SK-MEL-28 = tested on: SK-MEL-28
# SK-MEL-2 = tested on: SK-MEL-2
# SK-MEL-5 = tested on: SK-MEL-5
# SK-OV-3 = tested on: SK-OV-3
# SN12C = tested on: SN12C
# SNB-19 = tested on: SNB-19
# SNB-75 = tested on: SNB-75
# SR = tested on: SR
# SW-620 = tested on: SW-620
# T47D = tested on: T47D
# TK-10 = tested on: TK-10
# U-251 = tested on: U-251
# UACC-257 = tested on: UACC-257
# UACC-62 = tested on: UACC-62
# UO-31 = tested on: UO-31
smiles,measurement,setting,value
CCN(CC)c1ccc2c(c1)Oc1ccc(N(C(C)=O)c3ccccc3)cc1C21OC(=O)c2ccccc21 (stereo not drawn),GI50,786-0,> 100 µM (inactive)
same,GI50,A498,> 100 µM (inactive)
same,GI50,A549,37.8 µM (inactive)
same,GI50,ACHN,> 100 µM (inactive)
same,GI50,BT-549,98.2 µM (inactive)
same,GI50,CAKI-1,> 100 µM (inactive)
same,GI50,CCRF-CEM,21.1 µM (inactive)
same,GI50,COLO 205,> 64.1 µM (inactive)
same,GI50,DU-145,> 100 µM (inactive)
same,GI50,EKVX,84.7 µM (inactive)
same,GI50,HCC 2998,> 100 µM (inactive)
same,GI50,HCT-116,36.1 µM (inactive)
same,GI50,HCT-15,92.7 µM
same,GI50,HL-60,8.53 µM (inactive)
same,GI50,HOP-62,> 100 µM (inactive)
same,GI50,HOP-92,> 67.3 µM (inactive)
same,GI50,HT-29,32.3 µM (inactive)
same,GI50,Hs-578T,58.3 µM (inactive)
same,GI50,IGROV-1,> 100 µM (inactive)
same,GI50,K562,12.6 µM (inactive)
same,GI50,KM12,23 µM (inactive)
same,GI50,LOX IMVI,> 100 µM (inactive)
same,GI50,M14,40.6 µM (inactive)
same,GI50,MCF7,40.3 µM (inactive)
same,GI50,MDA-MB-231,> 100 µM (inactive)
same,GI50,MDA-MB-435,21 µM (inactive)
same,GI50,MDA-N,32.6 µM (inactive)
same,GI50,MOLT-4,16.7 µM (inactive)
same,GI50,Malme-3M,53.3 µM (inactive)
same,GI50,NCI-H226,> 100 µM (inactive)
same,GI50,NCI-H23,> 68.4 µM (inactive)
same,GI50,NCI-H460,65.9 µM (inactive)
same,GI50,NCI-H522,62.7 µM (inactive)
same,GI50,NCI/ADR-RES,> 61.8 µM (inactive)
same,GI50,OVCAR-3,> 100 µM (inactive)
same,GI50,OVCAR-4,> 82.8 µM (inactive)
same,GI50,OVCAR-5,> 100 µM (inactive)
same,GI50,OVCAR-8,> 75.5 µM (inactive)
same,GI50,PC-3,13.1 µM (inactive)
same,GI50,RPMI-8226,6.76 µM (inactive)
same,GI50,RXF 393,> 26.1 µM (inactive)
same,GI50,SF-268,> 100 µM (inactive)
same,GI50,SF-295,41.8 µM (inactive)
same,GI50,SF-539,> 100 µM (inactive)
same,GI50,SK-MEL-28,> 100 µM (inactive)
same,GI50,SK-MEL-2,> 100 µM (inactive)
same,GI50,SK-MEL-5,24.2 µM (inactive)
same,GI50,SK-OV-3,> 100 µM (inactive)
same,GI50,SN12C,> 100 µM (inactive)
same,GI50,SNB-19,> 100 µM (inactive)
same,GI50,SNB-75,> 59.7 µM (inactive)
same,GI50,SR,23.3 µM (inactive)
same,GI50,SW-620,47.1 µM (inactive)
same,GI50,T47D,5.32 µM (inactive)
same,GI50,TK-10,> 100 µM (inactive)
same,GI50,U-251,> 77.3 µM (inactive)
same,GI50,UACC-257,> 100 µM (inactive)
same,GI50,UACC-62,> 91.8 µM (inactive)
same,GI50,UO-31,23.7 µM (inactive)
N=C1OC(CN2CCN(c3ccccc3)CC2)CN1C(=S)Nc1ccccc1 (stereo not drawn),GI50,786-0,> 100 µM (inactive)
same,GI50,A498,89.9 µM (inactive)
same,GI50,A549,94.8 µM (inactive)
same,GI50,ACHN,66.5 µM (inactive)
same,GI50,BT-549,62.2 µM (inactive)
same,GI50,CAKI-1,95.5 µM (inactive)
same,GI50,CCRF-CEM,37.1 µM (inactive)
same,GI50,COLO 205,> 100 µM (inactive)
same,GI50,DU-145,> 100 µM (inactive)
same,GI50,EKVX,32.6 µM (inactive)
same,GI50,HCC 2998,> 100 µM (inactive)
same,GI50,HCT-116,> 100 µM (inactive)
same,GI50,HCT-15,91 µM
same,GI50,HL-60,31 µM (inactive)
same,GI50,HOP-62,45.5 µM (inactive)
same,GI50,HOP-92,21.9 µM (inactive)
same,GI50,HT-29,49.7 µM (inactive)
same,GI50,Hs-578T,13 µM (inactive)
same,GI50,IGROV-1,92.7 µM (inactive)
same,GI50,K562,33.9 µM (inactive)
same,GI50,KM12,39.2 µM (inactive)
same,GI50,LOX IMVI,25.3 µM (inactive)
same,GI50,M14,55 µM (inactive)
same,GI50,MCF7,37.2 µM (inactive)
same,GI50,MDA-MB-231,> 100 µM (inactive)
same,GI50,MDA-MB-435,76.6 µM (inactive)
same,GI50,MDA-N,84.9 µM (inactive)
same,GI50,MOLT-4,44.3 µM (inactive)
same,GI50,Malme-3M,38.9 µM (inactive)
same,GI50,NCI-H226,78.9 µM (inactive)
same,GI50,NCI-H23,50.6 µM (inactive)
same,GI50,NCI-H460,63.1 µM (inactive)
same,GI50,NCI-H522,28.9 µM (inactive)
same,GI50,NCI/ADR-RES,45.4 µM (inactive)
same,GI50,OVCAR-3,42.8 µM (inactive)
same,GI50,OVCAR-4,> 100 µM (inactive)
same,GI50,OVCAR-5,97.5 µM (inactive)
same,GI50,OVCAR-8,99.3 µM (inactive)
same,GI50,PC-3,65.3 µM (inactive)
same,GI50,RPMI-8226,54 µM (inactive)
same,GI50,RXF 393,41.1 µM (inactive)
same,GI50,SF-268,39.4 µM (inactive)
same,GI50,SF-295,32.7 µM (inactive)
same,GI50,SF-539,96.2 µM (inactive)
same,GI50,SK-MEL-28,84.3 µM (inactive)
same,GI50,SK-MEL-2,59.2 µM (inactive)
same,GI50,SK-MEL-5,35.8 µM (inactive)
same,GI50,SK-OV-3,> 100 µM (inactive)
same,GI50,SN12C,> 100 µM (inactive)
same,GI50,SNB-19,96.4 µM (inactive)
same,GI50,SNB-75,31 µM (inactive)
same,GI50,SR,29.8 µM (inactive)
same,GI50,SW-620,> 100 µM (inactive)
same,GI50,T47D,35.6 µM (inactive)
same,GI50,TK-10,43.5 µM (inactive)
same,GI50,U-251,78.7 µM (inactive)
same,GI50,UACC-257,56 µM (inactive)
same,GI50,UACC-62,48.8 µM (inactive)
same,GI50,UO-31,37.2 µM (inactive)
